Source: US20120322869A1, “ESTER COMPOUND AND USE THEREOF” (SUMITOMO CHEMICAL COMPANY, LIMITED, priority 2010, published 2012)

Columns and labels:
[1] = tested on: German cockroaches (Blattella germanica); test: Spray knock-down test with 0.1% (w/v) oil solution on German cockroaches (Test Example 2); format: in vivo; settings: adult Blattella germanica, 1.5 ml of 0.1% (w/v) oil solution sprayed
Procedure: Zero point one (0.1) part of the compound of the present inventions (1) and (2) was dissolved in 10 parts of isopropyl alcohol and the solution was mixed with 89.9 parts of deodorized kerosene to prepare a 0.1% (w/v) oil solution.
Ten adult German cockroaches (Blattella germanica, 5 males and 5 females) were released in a test container (diameter 8.75 cm, 7.5 cm high, the bottom face is made of 16 mesh metallic wire), the inner face on which butter was applied, and the container was set at the bottom of a test chamber (bottom face: 46 cm×46 cm, height: 70 cm).
Each 1.5 ml of the oil solution of the compound of the present invention (1) and (2) was sprayed using a spray gun at a pressure of 0.4 kg/cm^2 from 60 cm higher than the upper face of the container. Thirty seconds after the spraying, the container was pulled out from the chamber. Two minutes after spraying, the number of knocked-down […] was counted and a knock-down ratio was determined. A knocked-down ratio was calculated by the following equation.
Knocked-down ratio=(Number of knocked-down cockroaches/Number of test cockroaches)×100

[2] = tested on: American cockroaches (Periplaneta americana); test: Spray knock-down test with 0.1% (w/v) oil solution on American cockroaches (Test Example 1); format: in vivo; settings: adult Periplaneta americana, 1.5 ml of 0.1% (w/v) oil solution sprayed
Procedure: Zero point one (0.1) part of the compound of the present inventions (1) was dissolved in 10 parts of isopropyl alcohol and the solution was mixed with 89.9 parts of deodorized kerosene to prepare a 0.1% (w/v) oil solution.
Six adult American cockroaches (Periplaneta americana, 3 males and 3 females) were released in a test container (diameter 12.5 cm, 10 cm high, the bottom face is made of 16 mesh metallic wire), the inner face on which butter was applied, and the container was set at the bottom of a test chamber (bottom face: 46 cm×46 cm, height: 70 cm). Each 1.5 ml of the oil solution of the compound of the present invention (1) was sprayed using a spray gun at a pressure of 0.4 kg/cm^2 from 60 cm higher than the upper face of the container. Thirty seconds after the spraying, the container was pulled out from the chamber. After a prescribed time, the number of knocked-down cockroaches was counted and a knock-down ratio was determined (repeated twice). The knocked-down ratio was calculated by the following equation.
Knocked-down ratio (%) (Number of knocked-down cockroaches/Number of test cockroaches)×100

| Compound | Knock-down ratio (%) 2 minutes after spraying [1] [%] | Knock-down ratio (%) 5 minutes after spraying [2] [%] |
| --- | --- | --- |
| C=CCC1=C(C)C(OC(=O)[C@@H]2[C@@H](C=C(C#N)SC)C2(C)C)CC1=O (relative stereo) [compound of the present invention (2), 2-methyl-3-(2-propenyl)cyclopent-2-en-4-on-1-yl=(1R)-trans-3-[(1EZ)-2-cyano-2-(methylthio)ethenyl]-2,2-dimethylcyclopropanecarboxylate] | 100 |  |
| C#CCC1=C(C)[C@@H](OC(=O)[C@@H]2[C@@H](/C=C(\C#N)SC)C2(C)C)CC1=O [compound of the present invention (1), (S)-2-methyl-3-(2-propynyl)cyclopent-2-en-4-on-1-yl=(1R)-trans-3-[(1E)-2-cyano-2-(methylthio)ethenyl]-2,2-dimethylcyclopropane carboxylate] | 100 | 100 |
